Measurements reported in article PMC3407035 (Journal of enzyme inhibition and medicinal chemistry, 2011).

Key:
[1] = molecular target: T1, Human GGT1 (gamma-glutamyl transpeptidase, GGT) (Homo sapiens, UniProt P19440); test: pNA release at […] nm, transpeptidation; assay type: biochemical
[2] = molecular target: T1, Human GGT1 (gamma-glutamyl transpeptidase, GGT); test: pNA release at […] nm, hydrolysis; assay type: biochemical; conditions: read-out: D-GpNA Minus acceptor; no acceptor, pH 7.4, 37 °C

T1 sequence (P19440 27-380 limits assumed): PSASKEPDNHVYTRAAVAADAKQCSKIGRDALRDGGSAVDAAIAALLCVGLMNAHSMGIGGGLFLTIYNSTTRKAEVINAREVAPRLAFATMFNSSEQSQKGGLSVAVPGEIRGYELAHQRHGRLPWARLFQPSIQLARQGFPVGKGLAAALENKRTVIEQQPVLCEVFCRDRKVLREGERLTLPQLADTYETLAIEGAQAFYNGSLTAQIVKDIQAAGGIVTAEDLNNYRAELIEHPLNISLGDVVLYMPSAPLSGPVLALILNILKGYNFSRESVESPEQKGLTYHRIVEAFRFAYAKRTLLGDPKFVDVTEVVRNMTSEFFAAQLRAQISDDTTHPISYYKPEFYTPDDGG
T1 sequence (P19440 381-569 limits assumed): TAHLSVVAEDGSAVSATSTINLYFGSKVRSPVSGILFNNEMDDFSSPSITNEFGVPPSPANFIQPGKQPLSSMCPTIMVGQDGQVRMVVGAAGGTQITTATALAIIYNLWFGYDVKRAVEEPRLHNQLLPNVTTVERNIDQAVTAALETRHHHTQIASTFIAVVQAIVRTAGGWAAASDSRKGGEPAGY

SMILES | Ki [1] [µM] | Km [2] [µM]
N[C@H](CCC(=O)Nc1ccc([N+](=O)[O-])cc1)C(=O)O [D-GpNA] |  | 160 ± 20
COc1ccc(Cc2nnc(NS(=O)(=O)c3cccc4ccccc34)s2)cc1 [compound 6, Compound 6] | 45.7 ± 3.4 | 

Now from value to compound:

Ki [1] [µM] | Km [2] [µM] | SMILES
34.3 ± 0.9 |  | Cc1cccc(Cc2nnc(NS(=O)(=O)c3ccc([N+](=O)[O-])cc3)s2)c1 [compound 18, Compound 18]
13.4 ± 0.8 |  | COc1ccc(Cc2nnc(NS(=O)(=O)c3ccc(Cl)cc3)s2)cc1 [compound 10, Compound 10]
56.9 ± 8.3 |  | Cc1ccc(Cc2nnc(NS(=O)(=O)c3ccc([N+](=O)[O-])cc3)s2)cc1 [compound 17, Compound 17]
